Test results reported in patent publication US5177087A, “Cyclic amine compounds and their use” (Takeda Chemical Industries, Ltd., priority 1989, dated 1993).
Counter-ions that a name gives are not always drawn. Like-named read-outs stand apart in the source and are kept apart here.

Assays:
[1] = target: T1, cholinesterase (Rattus norvegicus, UniProt P37136); assay: Anti-cholinesterase action, (acetyl-[^3 H])-acetylcholine as substrate, S1 fraction of cerebral cortex homogenate; type: biochemical, male Wistar rats
T1 construct: the S1 fraction of the cerebral cortex homogenate from male Wistar rats was used as cholinesterase source; from tissue; host or cells: cerebral cortex homogenate, S1 fraction, male Wistar rats
Protocol: The anti-cholinesterase action of the compound of the present invention was investigated using (acetyl-[^3 H])-acetylcholine. Thus, the S1 fraction of the cerebral cortex homogenate from male Wistar rats was used as cholinesterase source, and (acetyl-[^3 H])-acetylcholine as the substrate and the compound of the invention as the test compound were incubated for 30 minutes and after termination of the reaction, a toluene scintillator was added. The mixture was shaken and the radioactivity of the reaction product [^3 H]-acetic acid in the toluene layer was measured with a scintillation counter to estimate the cholinesterase-antagonizing activity.
The anticholinesterase activity of the test compound was expressed as 50% inhibitory concentration (IC50) in Table 9.

[2] = Antihypoxic action: survival time of mice in a decompressed desiccator; type: in vivo, Male mice (ICR/Jcl strain); settings: Mus musculus, ip, read-out: survival time of drug-treated group (mean survival time of control group = 100)
Protocol: Male mice (ICR/Jcl strain, 5-6 weeks old) were divided into two groups, i.e. a control group and a drug-treated group. A desiccator was decompressed to an internal pressure of 35 mmHg with a vacuum pump and, then, connected to two desiccators housing mice of the two groups, respectively. After an equilibrium was established in internal pressure among the desiccators, the time to the onset of respiratory arrest of each mouse in each group was measured and regarded as survival time. Then, taking the mean survival time in the control group as 100, the survival time of the drug-treated group was expressed in percentage (Table 7). The test drug was administered intraperitoneally 30 minutes before induction of hypoxia. The control group received physiological saline.

[3] = Antiedematous action on the brain: microsphere-induced cerebral edema, water, sodium and ion contents of hemisphere; type: in vivo, Male rats (Wistar/Jcl); settings: 72 hours after microsphere infusion
From the text: Male rats (Wistar/Jcl, 11 weeks old) underwent cervical incision under ether anesthesia and the pterygopalatine artery and external carotid artery were ligated. After blockade of the common carotid artery bloodstream, a cannula was inserted retrogradely from the external carotid artery and indwelt at the origin of the internal carotid artery. Then, a suspension of carbon microspheres (50±10 μm in diameter) in 20% dextran was infused selectively into the internal carotid artery through the indwelt cannula over a period of about 10 seconds. Seventy-two hours after infusion, the brain was removed and divided into the right and left cerebral hemispheres. Then, the water, sodium and ion contents of each hemisphere were determined. The test drug was administered intraperitoneally 30 minutes before and 5 hours after infusion of the microspheres on the day of microsphere infusion and twice a day, i.e. in the morning and in the afternoon, thereafter till the end of the experiment. 5% Gum arabic was used in the control group.

[4] = Action on scopolamine-induced impairment of spontaneous alternation in a T-maze; type: in vivo, rats
Protocol: The nootropic effect of the compound of the invention (Example 59) was investigated using spontaneous alternation in rats (Murray and Fibiger, Behav Neurosci. 100, 23-32, 1986) as an indicator. Nine-week-old rats were used. Feeding was restricted so that the body weight of the rat would be reduced to about 80% of free-feeding weight. Then, training was started. Training consisted of 11 trials. In the first trial one food pellet (45 mg) was placed in each of food receptacles set at ends of two arms and the rat was allowed to select either arm freely for the food reward. In the subsequent 10 trials from the second to the eleventh trial, the diet was placed only on the arm opposite to the arm which had been selected immediately before. The selection of the arm where the diet was placed was regarded as a correct response. In each acquistion trial, the rat was first placed in a home compartment and 15 seconds later the door was opened to let the animal explore freely and select either arm. The rat was brought back to the home compartment after it had ingested the pellet in the case of a correct response or after it had reached the food receptacle in the case of an incorrect response. In the experiment, the rats which had attained the correct response rate of not less than 80% were used. Scopolamine bromide was administered intraperitoneally in a dose of 0.3 mg/kg 30 minutes before the beginning of the experiment and the test compound (Example 59) was administered orally 30 minutes before scopolamine administration. The results of the experiment are expressed in correct response rate. For the analysis of significant difference between the groups, Student's t-test (two-tailed) was used. In the first experiment, groups of 7-9 rats were used, and in the second experiment, groups of 12-14 rats were used. The results are shown in Table 10 (the results in the second experiment are shown in the parentheses).

[5] = 30 minutes incubation, read-out: Anticholinesterase activity IC50
[6] = 10 mg/kg, i.p., 30 minutes before hypoxia, 35 mmHg

T1 sequence (P37136 32-614): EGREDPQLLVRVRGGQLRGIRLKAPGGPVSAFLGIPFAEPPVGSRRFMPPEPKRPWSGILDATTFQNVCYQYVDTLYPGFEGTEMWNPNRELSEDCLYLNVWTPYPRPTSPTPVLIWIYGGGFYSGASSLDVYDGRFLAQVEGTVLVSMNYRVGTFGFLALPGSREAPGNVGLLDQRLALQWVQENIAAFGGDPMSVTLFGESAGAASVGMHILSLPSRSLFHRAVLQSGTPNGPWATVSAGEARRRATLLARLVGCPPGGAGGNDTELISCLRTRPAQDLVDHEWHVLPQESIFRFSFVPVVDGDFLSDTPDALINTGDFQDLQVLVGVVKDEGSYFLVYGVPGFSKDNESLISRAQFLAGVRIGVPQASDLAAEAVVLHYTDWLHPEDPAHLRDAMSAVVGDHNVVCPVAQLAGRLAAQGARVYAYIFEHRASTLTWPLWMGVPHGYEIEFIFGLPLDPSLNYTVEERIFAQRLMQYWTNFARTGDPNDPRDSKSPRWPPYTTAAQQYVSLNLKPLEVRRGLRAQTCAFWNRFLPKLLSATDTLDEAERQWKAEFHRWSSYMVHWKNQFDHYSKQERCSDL

## O=C(CCC1CCN(Cc2ccccc2)CC1)c1ccc(N2CCCCC2)cc1 [Example 60-1]
[1]; [5]
  IC50: 52 nM

## OC(c1ccc(N2CCCCC2)cc1N1CCCCC1)C1CCNCC1 (centres unmarked) [Example 14-6]
[2]
  response vs control in vivo at 0.1 mg/kg: 120 ± 7%
  response vs control in vivo at 0.5 mg/kg: 154 ± 17%
  response vs control in vivo at 2 mg/kg: 143 ± 17%
[2]; [6]
  response vs control in vivo at 10 mg/kg: 123 ± 6%
[3]; 50 mg × 7, i.p., control group 80.35 ± 0.22
  Water: 79.36 ± 0.13%
[3]; 50 mg × 7, i.p., control group 305 ± 19
  Na: 256 ± 5 mEq/kg
[3]; 50 mg × 7, i.p., control group 488 ± 11
  K: 506 ± 5 mEq/kg

## CN1CCN(c2ccc(C(=O)CCC3CCN(Cc4ccccc4)CC3)cc2)CC1 [Example 60-14]
[1]; [5]
  IC50: 6.8 nM

## O=C(CCC1CCN(Cc2ccccc2)CC1)c1ccc(N2CCCC2)cc1 [Example 60-11]
[1]; [5]
  IC50: 32 nM

## O=C(CCC1CCN(Cc2ccccc2)CC1)c1ccc(N2CCCCCC2)cc1 [Example 60-2]
[1]; [5]
  IC50: 250 nM

## O=C(CCC1CCN(Cc2ccccc2)CC1)c1ccc(N2CCCC2)cc1 [Example 60-10]
[1]; [5]
  IC50: 40 nM

## OC(c1ccc(N2CCC(Cc3ccccc3)CC2)cc1)C1CCNCC1 (centres unmarked) [Example 14-3]
[2]
  response vs control in vivo at 0.1 mg/kg: 108 ± 9%
  response vs control in vivo at 0.5 mg/kg: 162 ± 24%
  response vs control in vivo at 2 mg/kg: 137 ± 11%
[2]; [6]
  response vs control in vivo at 10 mg/kg: 398 ± 95%

## O=C(CCC1CCN(Cc2ccccc2)CC1)c1ccc(N2CCOCC2)cc1 [Example 60-20]
[1]; [5]
  IC50: 15 nM

## CC(=O)N1CCN(c2ccc(C(=O)CCC3CCN(Cc4ccccc4)CC3)cc2)CC1 [Example 60-19]
[1]; [5]
  IC50: 2.9 nM

## O=C(c1ccc(N2CCN(Cc3ccccc3)CC2)cc1)C1CCNCC1 [Example 11-4]
[2]
  response vs control in vivo at 0.1 mg/kg: 116 ± 11%
  response vs control in vivo at 0.5 mg/kg: 148 ± 17%
  response vs control in vivo at 2 mg/kg: 288 ± 82%
[2]; [6]
  response vs control in vivo at 10 mg/kg: 216 ± 53%

## CN1CCN(c2ccc(C(=O)CCC3CCN(Cc4ccccc4)CC3)cc2)CC1 [Example 60-7]
[1]; [5]
  IC50: 8.4 nM

## OC(c1ccc(N2CCN(Cc3ccccc3)CC2)cc1)C1CCNCC1 (centres unmarked) [Example 14-4]
[2]
  response vs control in vivo at 0.5 mg/kg: 152 ± 28%
  response vs control in vivo at 2 mg/kg: 188 ± 22%
[2]; [6]
  response vs control in vivo at 10 mg/kg: 197 ± 32%

## O=C(CCCC1CCN(Cc2ccccc2)CC1)c1ccc(N2CCCC2)cc1 [Example 69, 1-Benzyl-4-[3-(4-pyrrolidinobenzoyl)propyl]piperidine fumarate]
[1]; [5]
  IC50: 220 nM

## CN(C)c1ccc(CC2CCNCC2)cc1 [Example 20, 4-(4-Dimethylaminobenzyl)piperidine dihydrochloride]
[2]
  response vs control in vivo at 0.5 mg/kg: 99 ± 5%
  response vs control in vivo at 2 mg/kg: 118 ± 5%
[3]; 5 mg × 7, i.p., control group 80.59 ± 0.19
  Water: 79.80 ± 0.19%
[3]; 5 mg × 7, i.p., control group 306 ± 10
  Na: 268 ± 8 mEq/kg
[3]; 5 mg × 7, i.p., control group 488 ± 2
  K: 499 ± 5 mEq/kg

## O=C(CCC1CCN(Cc2ccccc2)CC1)c1ccc(N2CCNCC2)cc1 [Example 60-17]
[1]; [5]
  IC50: 6.1 nM

## O=C(CCC1CCN(Cc2ccccc2)CC1)c1ccc(N2CCOCC2)cc1 [Example 60-5]
[1]; [5]
  IC50: 10 nM

## c1ccc(CC2CCN(c3ccc(CC4CCNCC4)cc3)CC2)cc1 [Example 21-2]
[2]
  response vs control in vivo at 0.1 mg/kg: 165 ± 26%
  response vs control in vivo at 0.5 mg/kg: 147 ± 14%
  response vs control in vivo at 2 mg/kg: 147 ± 8%
[2]; [6]
  response vs control in vivo at 10 mg/kg: 280 ± 59%

## O=C(CCC1CCN(Cc2ccccc2)CC1)c1ccc(N2CCCC2)cc1 [Example 60-12]
[1]; [5]
  IC50: 28 nM

## O=C(CCC1CCN(Cc2ccccc2)CC1)c1ccc(N2CCCCC2)cc1 [Example 60-15]
[1]; [5]
  IC50: 61 nM

## O=C(CCC1CCN(Cc2ccccc2)CC1)c1ccc(-n2ccnc2)cc1 [Example 60-6]
[1]; [5]
  IC50: 20 nM

## CNc1ccc(C(=O)CCC2CCN(Cc3ccccc3)CC2)cc1 [Example 60-8]
[1]; [5]
  IC50: 150 nM

## O=C(CCC1CCN(Cc2ccccc2)CC1)c1ccc(NCCN2CCCCC2)cc1 [Example 60-22]
[1]; [5]
  IC50: 17 nM

## O=C(CCC1CCN(Cc2ccccc2)CC1)c1ccc(N2CCN(C(c3ccccc3)c3ccccc3)CC2)cc1 [Example 60-21]
[1]; [5]
  IC50: 710 nM

## O=C(CCC1CCN(Cc2ccccc2)CC1)c1ccc(N2CCCC2)cc1 [Example 59, 1-Benzyl-4-[2-(4-pyrrolidinobenzoyl)ethyl]piperidine]
[1]; Anticholinesterase activity IC50, 30 minutes incubation
  IC50: 27 nM
[4]; 3 mg/kg p.o. + scopolamine 0.3 mg/kg i.p., first experiment, scopolamine control 53.8 ± 4.6
  Mean correct response rate ± standard error: 61.4 ± 7.1
[4]; 10 mg/kg
  ameliorative effect on correct response rate: significant ameliorative effect
[4]; 3 and 10 mg/kg p.o.
  antagonism of the decrease of correct response rate by scopolamine: dose-dependently antagonized

## CN(C)c1ccc(C(=O)CCC2CCN(Cc3ccccc3)CC2)cc1 [Example 60-13]
[1]; [5]
  IC50: 48 nM

## CCNc1ccc(C(=O)CCC2CCN(Cc3ccccc3)CC2)cc1 [Example 60-4]
[1]; [5]
  IC50: 98 nM

## c1cc(N2CCCCC2)ccc1CC1CCNCC1 [Example 21-1, 4-(4-piperidinobenzyl)piperidine dihydrochloride]
[2]
  response vs control in vivo at 0.1 mg/kg: 133 ± 11%
  response vs control in vivo at 0.5 mg/kg: 155 ± 21%
  response vs control in vivo at 2 mg/kg: 231 ± 59%
  response vs control in vivo at 10 mg/kg: 277 ± 55%

## CN(C)c1ccc(C(=O)CCC2CCN(Cc3ccccc3)CC2)cc1 [Example 60-3]
[1]; [5]
  IC50: 53 nM

## OC(c1ccncc1)c1ccc(N2CCCCC2)cc1 (stereo not drawn) [Example 12, 4-[(α-Hydroxy-4-piperidino)benzyl]pyridine dihydrochloride]
[2]
  response vs control in vivo at 0.1 mg/kg: 84 ± 4%
  response vs control in vivo at 0.5 mg/kg: 152 ± 19%
  response vs control in vivo at 2 mg/kg: 163 ± 23%
[2]; [6]
  response vs control in vivo at 10 mg/kg: 132 ± 8%
